{"source": "paper PMC10341573", "about": "“Design, Synthesis, and Biological Evaluation of Novel Quinazolin-4(3H)-One-Based Histone Deacetylase 6 (HDAC6) Inhibitors for Anticancer Activity” (International Journal of Molecular Sciences, 2023)", "key": {"HEK 293": {"tested_on": "HEK 293", "test": "MTT cell proliferation assay, HEK 293", "format": "cell-based, human", "settings": "MTT, 72 h, mean ± SD, triplicate, read-out: IC50 ± SD HEK 293"}, "HDAC6": {"target": "T1, HDAC6 (Homo sapiens, UniProt Q9UBN7)", "T1 construct": "Full-length recombinant HDAC6 was purchased from BPS Bioscience; purchased BPS Bioscience", "T1 sequence (Q9UBN7 1-1215)": "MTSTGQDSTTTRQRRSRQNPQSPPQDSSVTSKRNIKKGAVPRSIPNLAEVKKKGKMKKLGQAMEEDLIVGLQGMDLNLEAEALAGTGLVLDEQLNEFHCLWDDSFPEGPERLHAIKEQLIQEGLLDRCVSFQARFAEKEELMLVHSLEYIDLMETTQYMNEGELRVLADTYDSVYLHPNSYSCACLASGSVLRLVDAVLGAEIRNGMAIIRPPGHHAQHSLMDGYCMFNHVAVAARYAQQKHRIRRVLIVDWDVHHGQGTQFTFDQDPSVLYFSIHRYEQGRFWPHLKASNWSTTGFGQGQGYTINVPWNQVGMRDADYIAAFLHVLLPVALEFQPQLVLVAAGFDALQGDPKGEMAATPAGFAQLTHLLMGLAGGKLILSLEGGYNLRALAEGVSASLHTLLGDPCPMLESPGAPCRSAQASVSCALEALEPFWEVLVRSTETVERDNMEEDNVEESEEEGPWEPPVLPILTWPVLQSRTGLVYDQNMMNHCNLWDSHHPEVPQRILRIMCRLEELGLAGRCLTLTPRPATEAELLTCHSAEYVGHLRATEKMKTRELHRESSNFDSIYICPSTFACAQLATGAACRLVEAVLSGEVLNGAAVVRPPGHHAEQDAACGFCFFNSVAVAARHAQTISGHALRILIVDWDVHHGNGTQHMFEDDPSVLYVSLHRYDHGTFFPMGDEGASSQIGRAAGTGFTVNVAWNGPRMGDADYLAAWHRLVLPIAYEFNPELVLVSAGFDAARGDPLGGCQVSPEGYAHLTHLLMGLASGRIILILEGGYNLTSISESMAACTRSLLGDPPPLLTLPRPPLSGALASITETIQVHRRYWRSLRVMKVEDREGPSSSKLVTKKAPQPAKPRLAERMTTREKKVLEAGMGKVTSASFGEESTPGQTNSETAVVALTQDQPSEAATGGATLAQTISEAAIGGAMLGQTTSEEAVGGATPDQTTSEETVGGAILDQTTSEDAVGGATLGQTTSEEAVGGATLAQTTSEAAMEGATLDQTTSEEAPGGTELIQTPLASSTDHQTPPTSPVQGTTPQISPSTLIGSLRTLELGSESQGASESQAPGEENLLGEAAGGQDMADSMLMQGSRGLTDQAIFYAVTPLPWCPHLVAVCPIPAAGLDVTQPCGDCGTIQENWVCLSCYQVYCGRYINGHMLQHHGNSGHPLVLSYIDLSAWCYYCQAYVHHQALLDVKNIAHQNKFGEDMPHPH", "test": "HDAC enzyme activity assay (fluorogenic, Boc-Lys(acetyl)-AMC), HDAC6", "format": "biochemical", "settings": "for IC50: class IIb HDAC6, mean ± SD, triplicate"}, "HDAC8": {"target": "T2, HDAC8 (Homo sapiens, UniProt Q9BY41)", "T2 construct": "codon-optimized full-length HDAC8; made in house; host or cells: E. coli BL21(DE3), pET14b vector", "T2 sequence (Q9BY41 1-377)": "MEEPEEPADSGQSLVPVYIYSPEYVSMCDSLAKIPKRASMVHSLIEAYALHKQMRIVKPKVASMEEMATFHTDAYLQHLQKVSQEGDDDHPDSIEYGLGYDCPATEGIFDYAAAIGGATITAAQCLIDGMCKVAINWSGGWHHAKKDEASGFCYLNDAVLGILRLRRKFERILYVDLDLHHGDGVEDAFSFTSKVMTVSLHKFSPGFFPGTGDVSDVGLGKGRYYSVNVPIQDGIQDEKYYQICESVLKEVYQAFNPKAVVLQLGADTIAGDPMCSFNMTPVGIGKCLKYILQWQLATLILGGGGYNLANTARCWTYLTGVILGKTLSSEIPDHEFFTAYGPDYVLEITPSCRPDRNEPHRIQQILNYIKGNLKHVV", "test": "HDAC enzyme activity assay (fluorogenic, Boc-Lys(trifluoroacetyl)-AMC), HDAC8", "format": "biochemical", "settings": "class I HDAC8; mean ± SD, triplicate"}, "B16": {"tested_on": "B16", "test": "MTT cell proliferation assay, B16", "format": "cell-based, murine", "settings": "MTT, 72 h, mean ± SD, triplicate, read-out: IC50 ± SD B16"}, "HCT116": {"tested_on": "HCT116", "test": "MTT cell proliferation assay, HCT116", "format": "cell-based, human", "settings": "MTT, 72 h, mean ± SD, triplicate, read-out: IC50 ± SD HCT116"}, "MCF7": {"tested_on": "MCF7", "test": "MTT cell proliferation assay, MCF7", "format": "cell-based, human", "settings": "MTT, 72 h, mean ± SD, triplicate, read-out: IC50 ± SD MCF7"}, "HDAC4": {"target": "T3, HDAC4 (Homo sapiens, UniProt P56524)", "T3 construct": "catalytic domain of HDAC4 (T648-T1057, full length: UniProt P56524); made in house; host or cells: E. coli BL21(DE3), pET14b vector", "T3 sequence (P56524 648-1057)": "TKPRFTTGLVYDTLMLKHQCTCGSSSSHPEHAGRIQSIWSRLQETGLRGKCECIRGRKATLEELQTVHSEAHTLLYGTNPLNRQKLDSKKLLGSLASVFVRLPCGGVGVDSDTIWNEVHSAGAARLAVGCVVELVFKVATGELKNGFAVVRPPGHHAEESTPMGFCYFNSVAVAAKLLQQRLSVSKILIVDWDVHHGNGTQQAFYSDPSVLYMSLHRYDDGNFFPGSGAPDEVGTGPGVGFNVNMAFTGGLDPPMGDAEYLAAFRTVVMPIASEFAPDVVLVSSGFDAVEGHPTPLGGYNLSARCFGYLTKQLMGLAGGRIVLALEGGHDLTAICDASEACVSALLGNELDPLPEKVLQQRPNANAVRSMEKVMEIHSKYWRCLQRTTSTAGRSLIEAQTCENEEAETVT", "test": "HDAC enzyme activity assay (fluorogenic, Boc-Lys(trifluoroacetyl)-AMC), HDAC4", "format": "biochemical", "settings": "class IIa HDAC4; mean ± SD, triplicate"}}, "note": "“And” between values parts separate entries of the source, which are not always exact repeats. Identical values can stand only once. Like-named read-outs stand apart in the source and are kept apart here."}
{"smiles": "O=C(NO)c1ccc(CSc2nc3cc(Cl)ccc3c(=O)n2-c2ccccc2)cc1", "note": "[Compound 5j, 4-(((7-chloro-4-oxo-3-phenyl-3,4-dihydroquinazolin-2-yl)thio)methyl)-N-hydroxybenzamide]", "values": [{"measurement": "IC50", "setting": "HEK 293; Homo sapiens, HEK293", "value": "> 50", "unit": "µM"}, {"measurement": "IC50", "setting": "HDAC6", "value": "0.65 ± 0.07", "unit": "µM"}, {"measurement": "IC50", "setting": "HDAC8", "value": "4 ± 1", "unit": "µM"}, {"measurement": "IC50", "setting": "B16; Mus musculus, B16", "value": "> 50", "unit": "µM"}, {"measurement": "IC50", "setting": "HCT116; Homo sapiens, HCT-116", "value": "> 50", "unit": "µM"}, {"measurement": "IC50", "setting": "MCF7; Homo sapiens, MCF7, 72 h", "value": "> 50", "unit": "µM"}, {"measurement": "IC50", "setting": "HDAC4", "value": "4.3 ± 1.2", "unit": "µM"}]}
{"smiles": "O=C(NO)c1ccc(CSc2nc3cc(Cl)ccc3c(=O)n2-c2ccccc2F)cc1", "note": "[Compound 5m, 4-(((7-chloro-3-(2-fluorophenyl)-4-oxo-3,4-dihydroquinazolin-2-yl)thio)methyl)-N-hydroxybenzamide]", "values": [{"measurement": "IC50", "setting": "HEK 293; Homo sapiens, HEK293", "value": "> 50", "unit": "µM"}, {"measurement": "IC50", "setting": "HDAC6", "value": "0.21 ± 0.05", "unit": "µM"}, {"measurement": "IC50", "setting": "HDAC8", "value": "3.3 ± 0.9", "unit": "µM"}, {"measurement": "IC50", "setting": "B16; Mus musculus, B16", "value": "> 50", "unit": "µM"}, {"measurement": "IC50", "setting": "HCT116; Homo sapiens, HCT-116", "value": "> 50", "unit": "µM"}, {"measurement": "IC50", "setting": "MCF7; Homo sapiens, MCF7, 72 h", "value": "> 50", "unit": "µM"}, {"measurement": "IC50", "setting": "HDAC4", "value": "0.56 ± 0.24", "unit": "µM"}]}
{"smiles": "Cc1ccc(-n2c(SCc3ccc(C(=O)NO)cc3)nc3cc(Cl)ccc3c2=O)cc1C", "note": "[Compound 5o, 4-(((7-chloro-3-(3,4-dimethylphenyl)-4-oxo-3,4-dihydroquinazolin-2-yl)thio)methyl)-N-hydroxybenzamide]", "values": [{"measurement": "IC50", "setting": "HEK 293; Homo sapiens, HEK293", "value": "> 50", "unit": "µM"}, {"measurement": "selectivity against class IIa HDAC4", "setting": "HDAC6; HDAC6 versus HDAC4", "value": 18, "unit": "fold"}, {"measurement": "selectivity against class I HDAC8", "setting": "HDAC6; HDAC6 versus HDAC8", "value": 36, "unit": "fold"}, {"measurement": "IC50", "setting": "HDAC6", "value": "0.4 µM and 0.39 µM"}, {"measurement": "IC50", "setting": "HDAC8", "value": 14, "unit": "µM"}, {"measurement": "IC50", "setting": "B16; Mus musculus, B16", "value": "> 50", "unit": "µM"}, {"measurement": "IC50", "setting": "HCT116; Homo sapiens, HCT-116", "value": "> 50", "unit": "µM"}, {"measurement": "IC50", "setting": "MCF7; Homo sapiens, MCF7, 72 h", "value": "> 50", "unit": "µM"}, {"measurement": "IC50", "setting": "HDAC4", "value": "7.1 ± 1.1", "unit": "µM"}]}
{"smiles": "Cc1cccc2nc(SCc3ccc(C(=O)NO)cc3)n(-c3ccccc3)c(=O)c12", "note": "[Compound 5p, N-hydroxy-4-(((5-methyl-4-oxo-3-phenyl-3,4-dihydroquinazolin-2-yl)thio)methyl)benzamide]", "values": [{"measurement": "IC50", "setting": "HEK 293; Homo sapiens, HEK293", "value": "> 50", "unit": "µM"}, {"measurement": "IC50", "setting": "HDAC6", "value": "0.22 ± 0.05", "unit": "µM"}, {"measurement": "IC50", "setting": "HDAC8", "value": "2.7 ± 0.6", "unit": "µM"}, {"measurement": "IC50", "setting": "B16; Mus musculus, B16", "value": "> 50", "unit": "µM"}, {"measurement": "IC50", "setting": "HCT116; Homo sapiens, HCT-116", "value": "> 50", "unit": "µM"}, {"measurement": "IC50", "setting": "MCF7; Homo sapiens, MCF7, 72 h", "value": "> 50", "unit": "µM"}, {"measurement": "IC50", "setting": "HDAC4", "value": "0.4 ± 0.14", "unit": "µM"}]}
{"smiles": "Cc1cccc2nc(SCc3ccc(C(=O)NO)cc3)n(-c3ccc(Cl)cc3)c(=O)c12", "note": "[Compound 5s, 4-(((3-(4-chlorophenyl)-5-methyl-4-oxo-3,4-dihydroquinazolin-2-yl)thio)methyl)-N-hydroxybenzamide]", "values": [{"measurement": "IC50", "setting": "HEK 293; Homo sapiens, HEK293", "value": "> 50", "unit": "µM"}, {"measurement": "IC50", "setting": "HDAC6", "value": "0.86 ± 0.06", "unit": "µM"}, {"measurement": "IC50", "setting": "HDAC8", "value": "5.9 ± 0.8", "unit": "µM"}, {"measurement": "IC50", "setting": "B16; Mus musculus, B16", "value": "> 50", "unit": "µM"}, {"measurement": "IC50", "setting": "HCT116; Homo sapiens, HCT-116", "value": "> 50", "unit": "µM"}, {"measurement": "IC50", "setting": "MCF7; Homo sapiens, MCF7, 72 h", "value": "> 50", "unit": "µM"}, {"measurement": "IC50", "setting": "HDAC4", "value": "0.91 ± 0.33", "unit": "µM"}]}
{"smiles": "C#Cc1cccc(Nc2ncnc3cc(OCCOC)c(OCCOC)cc23)c1", "note": "[Erlotinib, reference compound]", "values": [{"measurement": "IC50", "setting": "HEK 293; Homo sapiens, HEK293", "value": "> 50", "unit": "µM"}, {"measurement": "IC50", "setting": "B16; Mus musculus, B16", "value": "> 50", "unit": "µM"}, {"measurement": "IC50", "setting": "HCT116; Homo sapiens, HCT-116", "value": "> 50", "unit": "µM"}, {"measurement": "IC50", "setting": "MCF7; Homo sapiens, MCF7, 72 h", "value": "> 50", "unit": "µM"}]}
{"smiles": "CC(/C=C/C(=O)NO)=C\\[C@@H](C)C(=O)c1ccc(N(C)C)cc1", "note": "[Trichostatin A, reference compound]", "values": [{"measurement": "IC50", "setting": "HEK 293", "value": "15.3 ± 1.45", "unit": "µM"}, {"measurement": "IC50", "setting": "B16", "value": "28.9 ± 13", "unit": "µM"}, {"measurement": "IC50", "setting": "HCT116", "value": "18.3 ± 5.63", "unit": "µM"}, {"measurement": "IC50", "setting": "MCF7", "value": "42.5 ± 11.3", "unit": "µM"}]}
{"smiles": "CN1CCc2c(c3ccccc3n2Cc2ccc(C(=O)NO)cc2)C1", "note": "[Tubastatin, reference compound]", "values": [{"measurement": "IC50", "setting": "HEK 293; Homo sapiens, HEK293", "value": "1.26 ± 0.29", "unit": "µM"}, {"measurement": "IC50", "setting": "B16; Mus musculus, B16", "value": "1.99 ± 0.25", "unit": "µM"}, {"measurement": "IC50", "setting": "HCT116; Homo sapiens, HCT-116", "value": "1.34 ± 0.04", "unit": "µM"}, {"measurement": "IC50", "setting": "MCF7; Homo sapiens, MCF7, 72 h", "value": "12.7 ± 4.68", "unit": "µM"}]}
